Reference: patent publication US7732412B2, “Methods of treatment using novel LHRH antagonists having improved solubility properties” (Zentaris GmbH, priority 1999, dated 2010)
Numbered stars: 1 amine (or outer) side, 2 acyl side, 3 side chain; on linkers, the order of the positions; unused ones are H or OH. Square brackets hold non-standard residues; d marks the D form. Side chains are listed from the residue outwards. Peptide text beside a SMILES is read from it. * marks the point of attachment. NH(4-amidinophenyl) = N=C(N)c1ccc(N*)cc1; dPhe(4-Cl) = N[C@H](Cc1ccc(Cl)cc1)C(=O)O; d2Nal = N[C@H](Cc1ccc2ccccc2c1)C(=O)O; Lys(iPr) = CC(C)NCCCC[C@H](N)C(=O)O; NMeY = CN[C@@H](Cc1ccc(O)cc1)C(=O)O; dCit = NC(=O)NCCC[C@@H](N)C(=O)O; d3Pal = N[C@H](Cc1cccnc1)C(=O)O; Suc = O=C(CCC(=O)[*:2])[*:1]

What was measured:
human LHRH receptor [1] = target: T1, human LHRH receptor (Homo sapiens, UniProt P30968); experiment: receptor binding assay, displacement of [125I]-cetrorelix on intact cells; set-up: expressed in transfected cells; host or cells: LTK cells (stably transfected), intact cells; details: LTK cells expressing human LHRH receptor, 1 h at 37° C.; bracket = number of independent experiments; read-out: KD (binding affinity)
T1 sequence (P30968 1-328): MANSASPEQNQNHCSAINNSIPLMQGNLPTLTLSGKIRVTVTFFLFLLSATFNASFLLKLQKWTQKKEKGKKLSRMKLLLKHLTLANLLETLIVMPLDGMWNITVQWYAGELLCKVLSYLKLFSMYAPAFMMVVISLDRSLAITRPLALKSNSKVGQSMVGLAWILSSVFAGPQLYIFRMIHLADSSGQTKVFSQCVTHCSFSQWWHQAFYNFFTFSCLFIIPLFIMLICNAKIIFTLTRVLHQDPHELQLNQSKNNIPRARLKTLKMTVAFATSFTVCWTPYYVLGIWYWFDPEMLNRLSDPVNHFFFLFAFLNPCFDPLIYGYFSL
Source text: The compounds according to formula I of the invention were investigated for their receptor binding. The assay method closely followed the process described in Beckers et al., “Selection and characterization of mammalian cell lines with stable overexpression of human pituitary receptors for gonadoliberin (GnRH)” (1995) Eur. J. Biochem., 231, 535-543. Cetrorelix obtained according to the synthesis disclosed above was iodinated with [^125I] (Amersham; specific activity 80.5 Bq/fmol) using the IodoGen reagent (Pierce). The reaction mixture was purified by reverse-phase high-performance liquid chromatography with exchanged phases, monoiodinated cetrorelix being obtained without unlabelled peptide. In each case, about 80% of the [^125I]-cetrorelix was capable of specific receptor association.
The receptor binding assay was carried out under physiological conditions as described (Beckers et al., 1995) using intact cells. Subconfluent cultures of stably transfected LTK cells, which express the human LHRH receptor, were separated off by incubation in NaCl/Pi (137 mM NaCl, 2.7 mM KCl, 8.1 mM Na2HPO4, […])/1 mM EDTA and collected by centrifugation. The cell pellet was resuspended in binding buffer (DMEM without H2CO3, with 4.5 g/l of glucose, 10 mM Hepes pH 7.5, 0.5% (mass/volume) BSA, 1 g/l bacitracin, 0.1 g/l SBTI, 0.1% (mass/volume) NaN3). For displacement assays, 0.25×10^6 cells/100 μl were incubated with approximately 225 pM of the [^125I]-cetrorelix (specific activity 5-10×10^5 dpm/pmol) and various concentrations of unlabelled compound according to the invention as competitor. The cell suspension in 100 μl of binding medium was layered in 400 μl assay tubes over 200 μl of 84% by volume silicone oil (Merck Type 550)/16% by volume paraffin oil. […] Cell pellet and supernatants were then analysed by counting the y radiation. The amount of non-specifically bound material was determined at a final concentration of 1 μM with inclusion of unlabelled cetrorelix and was typically ≦10% of the total bound material. […]

human LHRH receptor [2] = target: T1, human LHRH receptor; experiment: functional assay for antagonistic activity, fos-Luc luciferase reporter gene, stimulation with 1 nM [D-Trp6] LHRH; assay type: cell-based; set-up: expressed in transfected cells; details: cells stimulated with 1 nM [D-Trp6] LHRH for 6 h; bracket = number of independent experiments
Method: The assay for the functional characterization of antagonistic analogs of LH-RH was carried out, with some modifications, as described in Beckers et al., “Characterization of gonadotropin-releasing hormone analogs based on a sensitive cellular luciferase reporter gene assay” (1997) Analyt. Biochem. 251, 17-23. The assay uses a reporter gene made by fusing the c-fos immediate-early gene promoter to a DNA sequence encoding luciferase (Luc). A recombinant cell line that expresses the human LH-RH. receptor is stably transfected with the fos-Luc reporter gene. Transcription of the fos-Luc fusion gene and synthesis of the Luc protein is induced in the cells in a dose-dependent manner by LH-RH and other LH-RH agonists that bind and signal through the human LH-RH receptor. Peptide LH-RH antagonists such as the compounds of the invention bind to cellular LH-RH receptors and inhibit this stimulation. The antagonistic potency (IC50) of peptide LH-RH antagonists as determined by the assay generally correlates well with the binding affinity (KD) of the LH-RH antagonists for LH-RH receptor as determined from ligand binding experiments.
Cells containing the fos-Luc reporter gene that express the human LH-RH receptor were cultured for 24 h in microtitre plates using DMEM with additives and 1% (v:v) FCS (10,000 cells per well). The cells were then stimulated with 1 nM [D-Trp^6] LHRH for 6 h. Peptide LH-RH antagonist compounds according to the invention were added before the stimulation, and the cells were lysed at the end for quantification of the cellular Luc activity. The calculation of the IC50 values from dose-effect curves was carried out by non-linear regression analysis using the Hill model (Programme EDX 2.0 from C. Grunwald, Arzneimittelwerk Dresden).
The quantification of the Luc activity was carried out in duplicate essentially as described (Promega Technical Bulletins #101/161) using the respective luciferase assay system (Promega E4030). Owing to addition of coenzyme A (CoA), an oxidation of luciferyl-CoA takes place with advantageous kinetics. After the removal of the culture medium from the microtitre plate, the cells were lysed by addition of 100 μl of lysis buffer (25 mM tris-phosphate pH 7.8, 2 mM dithiothreitol, 2 mM 1,2-diaminocyclohexane-N,N,N′,N′-tetraacetic acid (CDTA), 10% (v:v) glycerol, 1% (v:v) Triton X-100). After incubation at room temperature for 15 min, 10 μl of cell lysate were transferred into a white microtitre plate suitable for luminometric detection (Dynatech). The enzymatic reaction was initiated by addition of 50 μl of assay buffer (20 mM tricine pH 7.8, 1.07 mM (MgCO3)4Mg(OH)2, 2.67 mM MgSO4, 0.1 mM ethylene-diaminetetraacetic acid (EDTA), 33.3 mM dithiothreitol, 270 μM coenzyme A, 470 μM glow-worm (Photinus pyralis) luciferin, 530 μM rATPNa2). After one minute, the luminescence was determined for a total time of one second with a signal half-life of five minutes using the EG&G Berthold MicroLumat LB 96 P.

Kd (human LHRH receptor [1]) [nM] | IC50 (human LHRH receptor [2]) [nM] | SMILES
0.181 | 0.684 | CC(=O)N[C@H](Cc1ccc2ccccc2c1)C(=O)N[C@H](Cc1ccc(Cl)cc1)C(=O)N[C@H](Cc1cccnc1)C(=O)N[C@@H](CO)C(=O)N(C)[C@@H](Cc1ccc(O)cc1)C(=O)N[C@H](CCCCNC(=O)CCC(=O)Nc1ccc(C(=N)N)cc1)C(=O)N[C@@H](CC(C)C)C(=O)N[C@@H](CCCCNC(C)C)C(=O)N1CCC[C@H]1C(=O)N[C@H](C)C(N)=O [Example 2, Ac-D-Nal(2)^1-D-Cpa^2-D-Pal(3)^3-Ser^4-N-Me-Tyr^5-D-Lys(B)^6-Leu^7-Lys(iPr)^8-Pro^9-D-Ala^10-NH2] (Ac-[d2Nal][dPhe(4-Cl)][d3Pal]S[NMeY][dK]([Suc-NH(4-amidinophenyl)])L[Lys(iPr)]P[dA]-NH2)
0.154 | 0.492 | CC(=O)N[C@H](Cc1ccc2ccccc2c1)C(=O)N[C@H](Cc1ccc(Cl)cc1)C(=O)N[C@H](Cc1cccnc1)C(=O)N[C@@H](CO)C(=O)N(C)[C@@H](Cc1ccc(O)cc1)C(=O)N[C@H](CCCCNC(=O)CCC(=O)Nc1ccc(C(=N)N)cc1)C(=O)N[C@@H](CC(C)C)C(=O)N[C@@H](CCCNC(=N)N)C(=O)N1CCC[C@H]1C(=O)N[C@H](C)C(N)=O [Example 3, Ac-D-Nal(2)^1-D-Cpa^2-D-Pal(3)^3-ser^4-N-Me-Tyr^5-D-Lys(B)^6-Leu^7-Arg^8-Pro^9-D-Ala^10-NH2] (Ac-[d2Nal][dPhe(4-Cl)][d3Pal]S[NMeY][dK]([Suc-NH(4-amidinophenyl)])LRP[dA]-NH2)

SMILES | Kd (human LHRH receptor [1]) [nM] | IC50 (human LHRH receptor [2]) [nM]
CC(=O)N[C@H](Cc1ccc2ccccc2c1)C(=O)N[C@H](Cc1ccc(Cl)cc1)C(=O)N[C@H](Cc1cccnc1)C(=O)N[C@@H](CO)C(=O)N[C@@H](Cc1ccc(O)cc1)C(=O)N[C@H](CCCNC(N)=O)C(=O)N[C@@H](CC(C)C)C(=O)N[C@@H](CCCNC(=N)N)C(=O)N1CCC[C@H]1C(=O)N[C@H](C)C(N)=O [cetrorelix, Ac-D-Nal(2)^1-D-Cpa^2-D-Pal(3)^3-Ser^4-Tyr^5-D-Cit^6-Leu^7-Arg^8-Pro^9-D-Ala^10-NH2, reference compound] (Ac-[d2Nal][dPhe(4-Cl)][d3Pal]SY[dCit]LRP[dA]-NH2) | 0.17 | 0.198
